Assay results reported in US10253052B2, “HBED-bisphosphonates, radiometal conjugates and their use as theranostic agents” (Five Eleven Pharma Inc., priority 2015, dated 2019).

Tests used:
[1] = In vitro binding to hydroxyapatite; details: 20 mg hydroxyapatite in saline, 10 min at room temperature
Method: Hydroxyapatite (20 mg, Sigma-Aldrich, reagent grade powder) was incubated in isotonic saline (1 mL) for 24 h. Subsequently, either ^68Ga labeled 1a-h, 2, 3, BPAMD, or [^18F]NaF (1 μCi) was added to the hydroxyapatite suspension. After vortexing for 10 seconds, the suspension was incubated for 10 min at room temperature. The samples were then centrifuged at 10,000 rpm for 3 min and the supernatant was removed. The hydroxyapatite fraction was washed twice with saline (1 mL). Radioactivity in the combined supernatants and the hydroxyapatite fraction was measured using a gamma counter. The proportion of the ^68Ga complex binding to hydroxyapatite was determined as percent of ^68Ga absorbed to hydroxyapatite.

[2] = In vivo biodistribution in mice; set-up: species or system normal CD-1 male mice; details: iv
Method: Biodistribution experiments were performed by intravenously administering ^68Ga labeled 1a-h, 2, 3, BPAMD, and [^18F]NaF into normal, healthy male CD-1 mice (25-30 g). The injection activity was 20-30 μCi/animal. […] Organs of interest were harvested, weighed, and counts of radioactivity were measured by a gamma counter. The biodistribution of each sample was calculated as a percentage of the injected dose per gram of wet tissue weight (% ID/g). Tibia and femur bones were harvested and counted as bone samples.

O=C([O-])CN(CCN(CC(=O)[O-])Cc1cc(CCC(=O)NC(P(=O)(O)O)P(=O)(O)O)ccc1[O-])Cc1cc(CCC(=O)NCC(=O)O)ccc1[O-].[68Ga+3] [[^68Ga]1c]
Hydroxyapatite Binding (%) [1]: 89.1 ± 1.0% | bone to blood ratio ([2]; 2 min): 0.7 | bone to muscle ratio ([2]; 2 min): 5 | Biodistribution: Blood ([2]; 2 min post injection): 11.7 ± 0.55 % dose/g | Biodistribution: Bone ([2]; 2 min post injection): 8.40 ± 1.32 % dose/g | Biodistribution: Brain ([2]; 2 min post injection): 0.27 ± 0.06 % dose/g | Biodistribution: Heart ([2]; 2 min post injection): 4.57 ± 0.45 % dose/g | Biodistribution: Kidney ([2]; 2 min post injection): 27.7 ± 5.46 % dose/g | Biodistribution: Liver ([2]; 2 min post injection): 4.78 ± 0.18 % dose/g | Biodistribution: Lung ([2]; 2 min post injection): 5.66 ± 0.24 % dose/g | Biodistribution: Muscle ([2]; 2 min post injection): 1.68 ± 0.11 % dose/g | Biodistribution: Pancreas ([2]; 2 min post injection): 1.99 ± 0.23 % dose/g | Biodistribution: Skin ([2]; 2 min post injection): 2.05 ± 0.16 % dose/g | Biodistribution: Spleen ([2]; 2 min post injection): 3.41 ± 0.08 % dose/g | bone to blood ratio ([2]; 30 min): 8 | bone to muscle ratio ([2]; 30 min): 49 | Biodistribution: Blood ([2]; 30 min (0.5 hr) post injection): 1.34 ± 0.32 % dose/g | Biodistribution: Bone ([2]; 30 min (0.5 hr) post injection): 11.3 ± 0.26 % dose/g | Biodistribution: Brain ([2]; 30 min (0.5 hr) post injection): 0.05 ± 0.02 % dose/g | Biodistribution: Heart ([2]; 30 min (0.5 hr) post injection): 0.49 ± 0.07 % dose/g | Biodistribution: Kidney ([2]; 30 min (0.5 hr) post injection): 2.58 ± 0.05 % dose/g | Biodistribution: Liver ([2]; 30 min (0.5 hr) post injection): 2.21 ± 0.27 % dose/g | Biodistribution: Lung ([2]; 30 min (0.5 hr) post injection): 0.84 ± 0.11 % dose/g | Biodistribution: Muscle ([2]; 30 min (0.5 hr) post injection): 0.23 ± 0.05 % dose/g | Biodistribution: Pancreas ([2]; 30 min (0.5 hr) post injection): 0.39 ± 0.05 % dose/g | Biodistribution: Skin ([2]; 30 min (0.5 hr) post injection): 0.53 ± 0.18 % dose/g | Biodistribution: Spleen ([2]; 30 min (0.5 hr) post injection): 0.97 ± 0.01 % dose/g | bone to blood ratio ([2]; 60 min): 23 | bone to muscle ratio ([2]; 60 min): 102 | Biodistribution: Blood ([2]; 60 min (1 hr) post injection): 0.64 ± 0.17 % dose/g | Biodistribution: Bone ([2]; 60 min (1 hr) post injection): 14.7 ± 0.66 % dose/g | Biodistribution: Brain ([2]; 60 min (1 hr) post injection): 0.03 ± 0.01 % dose/g | Biodistribution: Heart ([2]; 60 min (1 hr) post injection): 0.24 ± 0.08 % dose/g | Biodistribution: Kidney ([2]; 60 min (1 hr) post injection): 1.88 ± 0.10 % dose/g | Biodistribution: Liver ([2]; 60 min (1 hr) post injection): 1.85 ± 0.11 % dose/g | Biodistribution: Lung ([2]; 60 min (1 hr) post injection): 0.42 ± 0.08 % dose/g | Biodistribution: Muscle ([2]; 60 min (1 hr) post injection): 0.14 ± 0.01 % dose/g | Biodistribution: Pancreas ([2]; 60 min (1 hr) post injection): 0.23 ± 0.02 % dose/g | Biodistribution: Skin ([2]; 60 min (1 hr) post injection): 0.33 ± 0.03 % dose/g | Biodistribution: Spleen ([2]; 60 min (1 hr) post injection): 0.74 ± 0.10 % dose/g | bone to blood ratio ([2]; 120 min): 39 | bone to muscle ratio ([2]; 120 min): 103 | Biodistribution: Blood ([2]; 120 min post injection): 0.41 ± 0.07 % dose/g | Biodistribution: Bone ([2]; 120 min post injection): 16.1 ± 2.71 % dose/g | Biodistribution: Brain ([2]; 120 min post injection): 0.02 ± 0.01 % dose/g | Biodistribution: Heart ([2]; 120 min post injection): 0.19 ± 0.03 % dose/g | Biodistribution: Kidney ([2]; 120 min post injection): 2.05 ± 0.27 % dose/g | Biodistribution: Liver ([2]; 120 min post injection): 1.99 ± 0.09 % dose/g | Biodistribution: Lung ([2]; 120 min post injection): 0.31 ± 0.06 % dose/g | Biodistribution: Muscle ([2]; 120 min post injection): 0.16 ± 0.01 % dose/g | Biodistribution: Pancreas ([2]; 120 min post injection): 0.20 ± 0.03 % dose/g | Biodistribution: Skin ([2]; 120 min post injection): 0.31 ± 0.04 % dose/g | Biodistribution: Spleen ([2]; 120 min post injection): 0.71 ± 0.29 % dose/g

C[C@H](NC(=O)CCc1ccc([O-])c(CN(CCN(CC(=O)[O-])Cc2cc(CCC(=O)NC(P(=O)(O)O)P(=O)(O)O)ccc2[O-])CC(=O)[O-])c1)C(=O)O.[68Ga+3] [[^68Ga]1d]
Hydroxyapatite Binding (%) [1]: 95.1 ± 0.5% | bone to blood ratio ([2]; 2 min): 1.1 | bone to muscle ratio ([2]; 2 min): 5.9 | Biodistribution: Blood ([2]; 2 min post injection): 9.08 ± 0.58 % dose/g | Biodistribution: Bone ([2]; 2 min post injection): 10.1 ± 2.05 % dose/g | Biodistribution: Brain ([2]; 2 min post injection): 0.29 ± 0.05 % dose/g | Biodistribution: Heart ([2]; 2 min post injection): 2.99 ± 0.26 % dose/g | Biodistribution: Kidney ([2]; 2 min post injection): 25.3 ± 3.89 % dose/g | Biodistribution: Liver ([2]; 2 min post injection): 1.89 ± 0.16 % dose/g | Biodistribution: Lung ([2]; 2 min post injection): 4.83 ± 0.25 % dose/g | Biodistribution: Muscle ([2]; 2 min post injection): 1.72 ± 0.15 % dose/g | Biodistribution: Pancreas ([2]; 2 min post injection): 1.53 ± 0.14 % dose/g | Biodistribution: Skin ([2]; 2 min post injection): 2.39 ± 0.13 % dose/g | Biodistribution: Spleen ([2]; 2 min post injection): 1.72 ± 0.24 % dose/g | bone to blood ratio ([2]; 30 min): 29 | bone to muscle ratio ([2]; 30 min): 64 | Biodistribution: Blood ([2]; 30 min (0.5 hr) post injection): 0.53 ± 0.13 % dose/g | Biodistribution: Bone ([2]; 30 min (0.5 hr) post injection): 15.3 ± 1.26 % dose/g | Biodistribution: Brain ([2]; 30 min (0.5 hr) post injection): 0.03 ± 0.00 % dose/g | Biodistribution: Heart ([2]; 30 min (0.5 hr) post injection): 0.26 ± 0.06 % dose/g | Biodistribution: Kidney ([2]; 30 min (0.5 hr) post injection): 2.14 ± 0.60 % dose/g | Biodistribution: Liver ([2]; 30 min (0.5 hr) post injection): 0.26 ± 0.09 % dose/g | Biodistribution: Lung ([2]; 30 min (0.5 hr) post injection): 0.45 ± 0.10 % dose/g | Biodistribution: Muscle ([2]; 30 min (0.5 hr) post injection): 0.24 ± 0.06 % dose/g | Biodistribution: Pancreas ([2]; 30 min (0.5 hr) post injection): 0.21 ± 0.12 % dose/g | Biodistribution: Skin ([2]; 30 min (0.5 hr) post injection): 0.42 ± 0.10 % dose/g | Biodistribution: Spleen ([2]; 30 min (0.5 hr) post injection): 0.21 ± 0.07 % dose/g | bone to blood ratio ([2]; 60 min): 144 | bone to muscle ratio ([2]; 60 min): 235 | Biodistribution: Blood ([2]; 60 min (1 hr) post injection): 0.10 ± 0.01 % dose/g | Biodistribution: Bone ([2]; 60 min (1 hr) post injection): 14.7 ± 0.50 % dose/g | Biodistribution: Brain ([2]; 60 min (1 hr) post injection): 0.01 ± 0.00 % dose/g | Biodistribution: Heart ([2]; 60 min (1 hr) post injection): 0.08 ± 0.01 % dose/g | Biodistribution: Kidney ([2]; 60 min (1 hr) post injection): 1.05 ± 0.17 % dose/g | Biodistribution: Liver ([2]; 60 min (1 hr) post injection): 0.12 ± 0.01 % dose/g | Biodistribution: Lung ([2]; 60 min (1 hr) post injection): 0.17 ± 0.01 % dose/g | Biodistribution: Muscle ([2]; 60 min (1 hr) post injection): 0.06 ± 0.00 % dose/g | Biodistribution: Pancreas ([2]; 60 min (1 hr) post injection): 0.06 ± 0.01 % dose/g | Biodistribution: Skin ([2]; 60 min (1 hr) post injection): 0.13 ± 0.01 % dose/g | Biodistribution: Spleen ([2]; 60 min (1 hr) post injection): 0.06 ± 0.00 % dose/g | bone to blood ratio ([2]; 120 min): 278 | bone to muscle ratio ([2]; 120 min): 417 | Biodistribution: Blood ([2]; 120 min post injection): 0.06 ± 0.02 % dose/g | Biodistribution: Bone ([2]; 120 min post injection): 17.0 ± 1.10 % dose/g | Biodistribution: Brain ([2]; 120 min post injection): 0.00 ± 0.00 % dose/g | Biodistribution: Heart ([2]; 120 min post injection): 0.06 ± 0.01 % dose/g | Biodistribution: Kidney ([2]; 120 min post injection): 0.91 ± 0.15 % dose/g | Biodistribution: Liver ([2]; 120 min post injection): 0.10 ± 0.01 % dose/g | Biodistribution: Lung ([2]; 120 min post injection): 0.09 ± 0.02 % dose/g | Biodistribution: Muscle ([2]; 120 min post injection): 0.04 ± 0.01 % dose/g | Biodistribution: Pancreas ([2]; 120 min post injection): 0.04 ± 0.01 % dose/g | Biodistribution: Skin ([2]; 120 min post injection): 0.09 ± 0.01 % dose/g | Biodistribution: Spleen ([2]; 120 min post injection): 0.05 ± 0.01 % dose/g
